Assay results from publication PMC9311596, “Main Bioactive Components and Their Biological Activities from Natural and Processed Rhizomes of Polygonum sibiricum” (Antioxidants, 2022).
“Also recorded” adds a separate entry of the source. Like-named read-outs stand apart in the source and are kept apart here.

Key:
[1] = DPPH radical scavenging assay; conditions: for EC50: isolated components, read-out: SC50 DPPH
Method: (§1) This assay was determined using the procedure previously reported.

[2] = ABTS radical scavenging assay; conditions: for EC50: isolated components, read-out: SC50 ABTS
Method: as §1

[3] = Superoxide radical scavenging assay; conditions: isolated components; read-out: SC50 Superoxide
Method: This assay was determined using the method previously reported.

[4] = Ferric reducing antioxidant power (FRAP) assay; conditions: for FRAP (TE): isolated components, mM Trolox equivalents per gram
Method: The FRAP assay was determined using the method previously reported.

[5] = target: T1, acetylcholinesterase (AChE) (Electrophorus electricus, UniProt O42275); assay: biochemical
T1 construct: purchased Sigma-Aldrich
T1 sequence (O42275 24-633): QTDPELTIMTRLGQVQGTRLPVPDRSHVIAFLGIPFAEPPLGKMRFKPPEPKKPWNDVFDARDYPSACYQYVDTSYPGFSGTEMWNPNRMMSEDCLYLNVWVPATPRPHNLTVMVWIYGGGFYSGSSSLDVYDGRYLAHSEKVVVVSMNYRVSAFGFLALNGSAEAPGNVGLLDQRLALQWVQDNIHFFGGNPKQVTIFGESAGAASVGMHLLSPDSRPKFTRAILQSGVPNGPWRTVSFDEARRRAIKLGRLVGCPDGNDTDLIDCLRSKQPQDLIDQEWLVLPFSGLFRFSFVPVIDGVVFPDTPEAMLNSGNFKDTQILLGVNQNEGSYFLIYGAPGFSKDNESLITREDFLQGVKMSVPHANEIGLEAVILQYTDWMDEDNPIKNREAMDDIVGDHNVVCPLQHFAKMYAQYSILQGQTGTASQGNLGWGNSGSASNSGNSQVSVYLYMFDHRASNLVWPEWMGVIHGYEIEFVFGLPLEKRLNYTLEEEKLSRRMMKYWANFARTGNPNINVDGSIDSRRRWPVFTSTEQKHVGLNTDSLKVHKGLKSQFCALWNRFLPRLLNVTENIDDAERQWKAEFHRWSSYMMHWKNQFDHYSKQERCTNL
Method: The AChE inhibitory assay was performed according to the previous method, with slight modifications. First, 1 mL of DTNB (15 mM) solution, 1 mL of AChI (15 mM) solution, 1 mL of AChE (0.2 U/mL), and various concentrations of PS (50–400 μg/mL) were prepared using sodium phosphate buffer (0.1 M, pH 8.0). The reaction was started by adding 140 μL PBS, 10 μL DTNB solution, 15 μL AChE solution and 20 μL sample. The reaction mixture was incubated at 20 °C in the dark for 10 min, and 10 μL of AChI solution was added. Finally, the reaction mixture was incubated at 20 °C for 10 min, and the absorbance was measured at 405 nm.

[6] = tested on: LPS-induced NO production in RAW264.7 macrophages; assay: Nitric oxide inhibitory assay; type: cell-based, Murine; conditions: Mus musculus
Method: Murine RAW264.7 macrophages were cultured in DMEM medium containing 10% fetal bovine serum (FBS) and 1% penicillin at 37 °C, 5% CO2 [37].
The NO inhibitory assay was performed based on the reference method.

[7] = tested on: iNOS; assay: Western blot analysis of iNOS; type: cell-based, Murine; conditions: 12.5, 25, and 50 µM, LPS 100 ng/mL, RAW264.7
Method: (§2) The Western blot analysis was performed using the reference method with slight modifications. RAW264.7 cells were seeded in 6 cm dishes for 24 h. The cells were treated with sample (12.5, 25, and 50 µM) and LPS (100 ng/mL). After treatment with drugs, cells were washed with cold PBS, and proteins were collected with lysis buffer containing protein inhibitors. After quantification, equal amounts of protein samples were separated using 5–8% SDS-polyacrylamide gels. The proteins were transferred to the membrane by electrophoresis. The membranes were soaked in 2% BSA blocking buffer for 2 h and then washed 2–3 times with TBST. Next, the membranes were visualized with primary antibody (iNOS, TNF-α, and IL-6) and soaked for 1 day. The next day, membranes were washed again with TBST 2–3 times and then soaked with secondary antibody for 2 h. Finally, immuno-reactivity was detected with ECL reagents, exposed with a luminometer photometer, and quantified with Image J.

[8] = tested on: TNF-α; assay: Western blot analysis of TNF-α; type: cell-based, Murine; conditions: 12.5, 25, and 50 µM, LPS 100 ng/mL, RAW264.7
Method: as §2

[9] = tested on: IL-6; assay: Western blot analysis of IL-6; type: cell-based, Murine; conditions: 12.5, 25, and 50 µM, LPS 100 ng/mL, RAW264.7
Method: as §2

[10] = isolated compounds, read-out: AChE IC50 (converted)
[11] = isolated compounds, LPS-induced NO, RAW264.7, read-out: Nitric Oxide IC50
[12] = solvent extracts, concentration causing 50% free radical scavenging
[13] = RAW264.7, read-out: Nitric Oxide IC50

Q: Which EC50 [1] does the source give for O=Cc1ccc(CO)o1 [5-HMF (1), 5-hydroxymethylfurfural] here?
A: The EC50 was greater than 400 µM.

Q: And the EC50 [2]?
A: Its EC50 is greater than 400 µM.

Q: What about the EC50 [3] of the same compound?
A: The EC50 was greater than 400 µM.

Q: And the “FRAP (TE)” value [4]?
A: The value was 26.70 ± 0.97 mM/g.

Q: What about the IC50 [5, 10] of the same compound?
A: Its IC50 is 81.5 ± 11.1 µM.

Q: What about the IC50 [6, 11] of the same compound?
A: The IC50 was 34.9 ± 8.8 µM.

Q: Which results are given for Cc1cc(C(C)(C)C)c(O)c(C(C)(C)C)c1 [BHT, Butylated hydroxytoluene, reference compound]?
A: EC50 [1]: 192 ± 8.94 µM; SC50 DPPH [1, 12]: 35.54 ± 0.64 µg/mL; EC50 [2]: 100 ± 7.26 µM; SC50 ABTS [2, 12]: 20.57 ± 0.22 µg/mL; FRAP (TE) [4]: 2896.93 ± 21.19 mM/g; TE FRAP ([4]; solvent extracts, mM Trolox equivalents per gram of fresh extract): 3005.93 ± 13.10 mM/g

Q: What does the source list for O=C(/C=C/c1ccc(O)c(O)c1)O[C@@H]1C[C@](O)(C(=O)O)C[C@@H](O)[C@H]1O [Chlorogenic acid, chlorogenic acid, reference compound]?
A: IC50 [5, 10]: 68.2 ± 2.9 µM; IC50 ([5]; solvent extracts, read-out: AChE IC50 (converted)): 65.7 µM

Q: What does the source list for O=c1c(O[C@@H]2O[C@H](CO)[C@H](O)[C@H](O)[C@H]2O)c(-c2ccc(O)c(O)c2)oc2cc(O)cc(O)c12 [Hyperoside (4), hyperoside]?
A: EC50 [1]: 12.5 ± 4.02 µM; EC50 [2]: 29.3 ± 0.51 µM; EC50 [3]: 172 ± 3.8 µM; FRAP (TE) [4]: 3246.93 ± 31.92 mM/g; IC50 [5]: 121 ± 10.7 µM; IC50 [6, 13]: 18.9 ± 1.68 µM; inhibition of iNOS production [7]: significantly inhibited iNOS production in a concentration-dependent manner; inhibition of TNF-α production [8]: significantly inhibited the production of TNF-α and IL-6 in a concentration-dependent manner; inhibition of IL-6 production [9]: significantly inhibited the production of TNF-α and IL-6 in a concentration-dependent manner

Q: For O=c1c(O[C@@H]2O[C@H](CO)[C@@H](O)[C@H](O)[C@H]2O)c(-c2ccc(O)c(O)c2)oc2cc(O)cc(O)c12 [Isoquercetin (3), isoquercetin], which EC50 [1] is on record?
A: The EC50 was 12.6 ± 3.21 µM.

Q: And the EC50 [2]?
A: The EC50 was 22.7 ± 1.17 µM.

Q: What about the EC50 [3] of the same compound?
A: Its EC50 is 180 ± 4.43 µM.

Q: And the “FRAP (TE)” value [4]?
A: Its value is 3898.88 ± 23.23 mM/g.

Q: And the IC50 [5]?
A: The IC50 was 23.1 ± 3.15 µM.

Q: What about the IC50 [6, 13] of the same compound?
A: Its IC50 is 17 ± 1.28 µM.

Q: What about the “inhibition of iNOS production” value [7] of the same compound?
A: The value was “significantly inhibited iNOS production in a concentration-dependent manner”.

Q: What about the “inhibition of TNF-α production” value [8] of the same compound?
A: Its value is “significantly inhibited the production of TNF-α and IL-6 in a concentration-dependent manner”.

Q: And the “inhibition of IL-6 production” value [9]?
A: The value was “significantly inhibited the production of TNF-α and IL-6 in a concentration-dependent manner”.

Q: With O=c1c(O)c(-c2ccc(O)c(O)c2)oc2cc(O)cc(O)c12 [Quercetin, quercetin, reference compound] as the compound, how does the IC50 [6, 11] read?
A: Its IC50 is 18.3 ± 0.54 µM.

Q: What about the IC50 ([6]; solvent extracts, LPS-induced NO, RAW264.7, read-out: Nitric Oxide IC50) of the same compound?
A: Its IC50 is 7.52 ± 0.25 µg/mL.

Q: Which results are given for C[C@@H]1O[C@@H](OC[C@H]2O[C@@H](Oc3c(-c4ccc(O)c(O)c4)oc4cc(O)cc(O)c4c3=O)[C@H](O)[C@@H](O)[C@@H]2O)[C@H](O)[C@H](O)[C@H]1O [Rutin (5), rutin]?
A: EC50 [1]: 5.6 ± 0.34 µM; EC50 [2]: 15.4 ± 0.25 µM; EC50 [3]: 175 ± 3.02 µM; FRAP (TE) [4]: 2221.33 ± 5.02 mM/g; IC50 [5]: 33.1 ± 5.43 µM; IC50 [6, 13]: 9.89 ± 1.36 µM; inhibition of iNOS production [7]: strongest inhibitory effect among all isolated compounds; also recorded: significantly inhibited iNOS production in a concentration-dependent manner; inhibition of TNF-α production [8]: significantly inhibited the production of TNF-α and IL-6 in a concentration-dependent manner; inhibition of IL-6 production [9]: significantly inhibited the production of TNF-α and IL-6 in a concentration-dependent manner

Q: Which results are given for COc1cc2ccc(=O)oc2cc1O [Scopoletin (2), scopoletin]?
A: EC50 [1]: > 400 µM; EC50 [2]: 91.3 ± 3.36 µM; EC50 [3]: > 400 µM; FRAP (TE) [4]: 2892.97 ± 19.18 mM/g; IC50 [5]: 32.4 ± 2.05 µM; IC50 [6, 11]: 36.3 ± 4.65 µM
